According to patent US20180214395A1 (priority 2017, published 2018):

Experiment: SAD study: cardiac safety (ECG, telemetry, QTcF prolongation)

Compound: CCC(=O)C(C[C@H](C)N(C)C)(c1ccccc1)c1ccccc1 [d-methadone]
- QTcF Reading 1 (100 mg, subject 9056, 0.5 h): 415 ms
- QTcF Reading 2 (100 mg, subject 9056, 0.5 h): 424 ms
- QTcF Reading 3 (100 mg, subject 9056, 0.5 h): 436 ms
- QTcF Average (100 mg, subject 9056, 2 h): 439 ms
- QTcF Reading 1 (100 mg, subject 9056, 2 h): 445 ms
- QTcF Reading 2 (100 mg, subject 9056, 2 h): 426 ms
- QTcF Reading 3 (100 mg, subject 9056, 2 h): 446 ms
- QTcF Average (100 mg, subject 9056, 3 h): 442 ms
- QTcF Reading 1 (100 mg, subject 9056, 3 h): 453 ms
- QTcF Reading 2 (100 mg, subject 9056, 3 h): 443 ms
- QTcF Reading 3 (100 mg, subject 9056, 3 h): 429 ms
- QTcF Average (100 mg, subject 9056, 5 h): 429 ms
- QTcF Reading 1 (100 mg, subject 9056, 5 h): 419 ms
- QTcF Reading 2 (100 mg, subject 9056, 5 h): 448 ms
- QTcF Reading 3 (100 mg, subject 9056, 5 h): 419 ms
- QTcF Average (100 mg, subject 9056, 8 h): 446 ms
- QTcF Reading 1 (100 mg, subject 9056, 8 h): 436 ms
- QTcF Reading 2 (100 mg, subject 9056, 8 h): 457 ms
- QTcF Reading 3 (100 mg, subject 9056, 8 h): 444 ms
- QTcF Average (100 mg, subject 9056, 24 h): 432 ms
- QTcF Reading 1 (100 mg, subject 9056, 24 h): 432 ms
- QTcF Reading 2 (100 mg, subject 9056, 24 h): 431 ms
- QTcF Reading 3 (100 mg, subject 9056, 24 h): 434 ms
- QTcF Average (100 mg, subject 9056, 48 h): 422 ms
- QTcF Reading 1 (100 mg, subject 9056, 48 h): 418 ms
- QTcF Reading 2 (100 mg, subject 9056, 48 h): 433 ms
- QTcF Reading 3 (100 mg, subject 9056, 48 h): 416 ms
- Overall ECG result Abnormal, NCS (150 mg (N = 6), 0.5 h): 1 (16.7) n (%)
- Overall ECG result Normal (150 mg (N = 6), 0.5 h): 5 (83.3) n (%)
- Overall ECG result Abnormal, NCS (150 mg (N = 6), 1 h): 2 (33.3) n (%)
- Overall ECG result Normal (150 mg (N = 6), 1 h): 4 (66.7) n (%)
- Overall ECG result Abnormal, NCS (150 mg (N = 6), 2 h): 2 (33.3) n (%)
- Overall ECG result Normal (150 mg (N = 6), 2 h): 4 (66.7) n (%)
- Overall ECG result Abnormal, NCS (150 mg (N = 6), 3 h): 4 (66.7) n (%)
- Overall ECG result Normal (150 mg (N = 6), 3 h): 2 (33.3) n (%)
- Overall ECG result Abnormal, NCS (150 mg (N = 6), 5 h): 2 (33.3) n (%)
- Overall ECG result Normal (150 mg (N = 6), 5 h): 4 (66.7) n (%)
- Overall ECG result Abnormal, NCS (150 mg (N = 6), 8 h): 2 (33.3) n (%)
- Overall ECG result Normal (150 mg (N = 6), 8 h): 4 (66.7) n (%)
- Overall ECG result Abnormal, NCS (150 mg (N = 6), 12 h): 2 (33.3) n (%)
- Overall ECG result Normal (150 mg (N = 6), 12 h): 4 (66.7) n (%)
- Overall ECG result Abnormal, NCS (150 mg (N = 6), 24 h): 1 (16.7) n (%)
- Overall ECG result Normal (150 mg (N = 6), 24 h): 5 (83.3) n (%)
- Overall ECG result Abnormal, NCS (150 mg (N = 6), 48 h): 1 (16.7) n (%)
- Overall ECG result Normal (150 mg (N = 6), 48 h): 5 (83.3) n (%)
- Overall ECG result Abnormal, NCS (150 mg (N = 6), 72 h): 0 n (%)
- Overall ECG result Normal (150 mg (N = 6), 72 h): 6 (100) n (%)
- Overall ECG result Abnormal, NCS (150 mg (N = 6), Visit 3): 0 n (%)
- Overall ECG result Normal (150 mg (N = 6), Visit 3): 6 (100) n (%)
- QTcF Average (150 mg, subject 9088, 3 h): 422 ms
- QTcF Reading 1 (150 mg, subject 9088, 3 h): 410 ms
- QTcF Reading 2 (150 mg, subject 9088, 3 h): 434 ms
- QTcF Reading 3 (150 mg, subject 9088, 3 h): 423 ms
- QTcF Average (150 mg, subject 9088, 12 h): 430 ms
- QTcF Reading 1 (150 mg, subject 9088, 12 h): 434 ms
- QTcF Reading 2 (150 mg, subject 9088, 12 h): 427 ms
- QTcF Reading 3 (150 mg, subject 9088, 12 h): 429 ms
- QTcF Average (150 mg, subject 9099, 3 h): 429 ms
- QTcF Reading 1 (150 mg, subject 9099, 3 h): 420 ms
- QTcF Reading 2 (150 mg, subject 9099, 3 h): 431 ms
- QTcF Reading 3 (150 mg, subject 9099, 3 h): 435 ms
- QTcF Average (150 mg, subject 9099, 5 h): 436 ms
- QTcF Reading 1 (150 mg, subject 9099, 5 h): 437 ms
- QTcF Reading 2 (150 mg, subject 9099, 5 h): 440 ms
- QTcF Reading 3 (150 mg, subject 9099, 5 h): 431 ms
- Overall ECG result Abnormal, NCS (200 mg (N = 1), 0.5 h): 1 (100) n (%)
- Overall ECG result Normal (200 mg (N = 1), 0.5 h): 0 n (%)
- Overall ECG result Abnormal, NCS (200 mg (N = 1), 1 h): 1 (100) n (%)
- Overall ECG result Normal (200 mg (N = 1), 1 h): 0 n (%)
- Overall ECG result Abnormal, NCS (200 mg (N = 1), 2 h): 1 (100) n (%)
- Overall ECG result Normal (200 mg (N = 1), 2 h): 0 n (%)
- Overall ECG result Abnormal, NCS (200 mg (N = 1), 3 h): 1 (100) n (%)
- Overall ECG result Normal (200 mg (N = 1), 3 h): 0 n (%)
- Overall ECG result Abnormal, NCS (200 mg (N = 1), 5 h): 1 (100) n (%)
- Overall ECG result Normal (200 mg (N = 1), 5 h): 0 n (%)
- Overall ECG result Abnormal, NCS (200 mg (N = 1), 8 h): 0 n (%)
- Overall ECG result Normal (200 mg (N = 1), 8 h): 1 (100) n (%)
- Overall ECG result Abnormal, NCS (200 mg (N = 1), 12 h): 0 n (%)
- Overall ECG result Normal (200 mg (N = 1), 12 h): 1 (100) n (%)
- Overall ECG result Abnormal, NCS (200 mg (N = 1), 24 h): 1 (100) n (%)
- Overall ECG result Normal (200 mg (N = 1), 24 h): 0 n (%)
- Overall ECG result Abnormal, NCS (200 mg (N = 1), 48 h): 0 n (%)
- Overall ECG result Normal (200 mg (N = 1), 48 h): 1 (100) n (%)
- Overall ECG result Abnormal, NCS (200 mg (N = 1), 72 h): 0 n (%)
- Overall ECG result Normal (200 mg (N = 1), 72 h): 1 (100) n (%)
- Overall ECG result Abnormal, NCS (200 mg (N = 1), Visit 3): 0 n (%)
- Overall ECG result Normal (200 mg (N = 1), Visit 3): 1 (100) n (%)
- QTcF Average (200 mg, subject 9078, 3 h): 426 ms
- QTcF Reading 1 (200 mg, subject 9078, 3 h): 441 ms
- QTcF Reading 2 (200 mg, subject 9078, 3 h): 422 ms
- QTcF Reading 3 (200 mg, subject 9078, 3 h): 416 ms
- ECG abnormal result: QTcF prolongation (SAD 5 mg, 1 h): 1 (16.7) n (%)
- ECG abnormal result: QTcF prolongation (SAD 5 mg, 2 h): 2 (33.3) n (%)
- ECG abnormal result: QTcF prolongation (SAD 5 mg, 3 h): 1 (16.7) n (%)
- ECG abnormal result: QTcF prolongation (SAD 5 mg, 5 h): 2 (33.3) n (%)
- ECG abnormal result: QTcF prolongation (SAD 5 mg, total): 3 (50.0) n (%)
- ECG abnormal result: QTcF prolongation (SAD 20 mg, total): 0 n (%)
- ECG abnormal result: QTcF prolongation (SAD 60 mg, total): 0 n (%)
- ECG abnormal result: QTcF prolongation (SAD 100 mg, 0.5 h): 1 (16.7) n (%)
- ECG abnormal result: QTcF prolongation (SAD 100 mg, 2 h): 1 (16.7) n (%)
- ECG abnormal result: QTcF prolongation (SAD 100 mg, 3 h): 1 (16.7) n (%)
- ECG abnormal result: QTcF prolongation (SAD 100 mg, 5 h): 1 (16.7) n (%)
- ECG abnormal result: QTcF prolongation (SAD 100 mg, 8 h): 1 (16.7) n (%)
- ECG abnormal result: QTcF prolongation (SAD 100 mg, 24 h): 1 (16.7) n (%)
- ECG abnormal result: QTcF prolongation (SAD 100 mg, 48 h): 1 (16.7) n (%)
- ECG abnormal result: QTcF prolongation (SAD 100 mg, total): 1 (16.7) n (%)
- ECG abnormal result: QTcF prolongation (SAD 150 mg, 3 h): 2 (33.3) n (%)
- ECG abnormal result: QTcF prolongation (SAD 150 mg, 5 h): 1 (16.7) n (%)
- ECG abnormal result: QTcF prolongation (SAD 150 mg, 12 h): 1 (16.7) n (%)
- ECG abnormal result: QTcF prolongation (SAD 150 mg, total): 2 (33.3) n (%)
- ECG abnormal result: QTcF prolongation (SAD 200 mg (N=1), 3 h): 1 (100) n (%)
- ECG abnormal result: QTcF prolongation (SAD 200 mg (N=1), total): 1 (100) n (%)
- Dose relation of QTcF prolongation (SAD study): no dose-related effects were observed
- Maximum QTcF interval observed (SAD study, Subject 9056): 457 ms
